Legend:
Candida albicans [1] = test: Intracellular cleavage exhibited in Candida albicans ATCC 26278; type: functional
Candida albicans [2] = test: Rate of transport of compound in Candida albicans ATCC 26278; type: functional

| SMILES | Cleavage rate (Candida albicans [1]) | Transport rate (Candida albicans [2]) |
| --- | --- | --- |
| CCC[C@H](NC(=O)[C@@H](N)CCSC)C(=O)N[C@@H](CNC(=O)CI)C(=O)O | 3.8 µmol/min/mg |  |
| CCC[C@H](NC(=O)[C@H](N)CCSC)C(=O)N[C@@H](CNC(=O)CI)C(=O)O |  | 0.5 µmol/min/mg |
| CSCCC(N)C(=O)NC(CNC(=O)CI)C(=O)O (centres undefined) | 3.1 µmol/min/mg | 1.9 µmol/min/mg |
